Starred links: 1 amine or outer side, 2 acyl side, 3 side chain; linkers in the order of their positions; H or OH if unused. Positions of bridges follow the written chain, without caps; N, C: chain ends. Residues, ends and D or L forms follow the SMILES beside them. Phenylene(1,4-NHCOCH2)2 = O=C(C[*:1])Nc1ccc(NC(=O)C[*:2])cc1; X4 = O=C(C[*:1])O[C@H]1CC[C@@H](OC(=O)C[*:2])CC1; X9 = O=C(C[*:1])O[C@@H]1CCC[C@H](OC(=O)C[*:2])C1; X5 = CN(C(=O)C[*:1])c1ccc(N(C)C(=O)C[*:2])cc1; X7 = O=C(C[*:1])Nc1cc(F)c(NC(=O)C[*:2])cc1F
Assay: Measurement of LogD (CHI logD by HPLC)
Format: physicochemical
Conditions: CHI log D, 50 mM ammonium acetate pH 7.4 / acetonitrile gradient, C-18 column, 25° C.
Description: Measurement of LogD: LogD values were measured on a Agilent 1260 HPLC with UV detector (254, 220 nm), using a Gemini NX C-18 50×3 mm column (Phenomenex) with a 6-minute 0-100% mobile phase gradient of A) 50 mM ammonium acetate pH 7.4 and B) Acetonitrile at 25° C. with a flow rate of 1 mL/min and injection volume of 3-5 uL.

Row | chromatographic logD | Structure (SMILES)
1 | 0.39 | CC[C@H](C)[C@@H]1NC(=O)[C@H](CC(C)C)NC(=O)[C@H](C)NC(=O)[C@H](C)NC(=O)[C@H](Cc2c[nH]cn2)NC(=O)[C@H](CCC(=O)O)NC(=O)[C@@H](NC(=O)[C@H](Cc2c[nH]cn2)NC(=O)[C@H](Cc2c[nH]c3ccccc23)NC(=O)[C@H](CCC(N)=O)NC(=O)[C@H](C)NC(=O)[C@@H]2CCCN2C(=O)[C@H](CC(=O)O)NC(=O)[C@H](C)N)CSCC(=O)Nc2ccc(cc2)NC(=O)CSC[C@@H](C(=O)N[C@@H](CCC(=O)O)C(=O)N[C@@H](CC(C)C)C(=O)N[C@@H](CC(=O)O)C(N)=O)NC1=O [Compound 10] (H-ADPAQWHCEHAALICELD-NH2; linker 8-15 via Phenylene(1,4-NHCOCH2)2; N-terminus and C-terminus assumed)
2 | 0.47 | CC[C@H](C)[C@H](NC(=O)[C@H](CCC(=O)O)NC(=O)[C@@H]1CSCC(=O)Nc2ccc(cc2)NC(=O)CSC[C@H](NC(=O)[C@@H]2CCCN2C(=O)[C@H](Cc2c[nH]c3ccccc23)NC(=O)[C@H](CCC(N)=O)NC(=O)[C@H](C)NC(=O)[C@@H]2CCCN2C(=O)[C@H](CC(=O)O)NC(=O)[C@H](C)N)C(=O)N[C@@H](CCC(=O)O)C(=O)N[C@@H](Cc2c[nH]cn2)C(=O)N[C@@H](C)C(=O)N[C@@H](C)C(=O)N[C@@H](CC(C)C)C(=O)N[C@@H](CC(C)C)C(=O)N1)C(=O)N[C@@H](CCC(=O)O)C(N)=O [Compound 14] (H-ADPAQWPCEHAALLCEIE-NH2; linker 8-15 via Phenylene(1,4-NHCOCH2)2; N-terminus and C-terminus assumed)
3 | 0.39 | CC[C@H](C)[C@@H]1NC(=O)[C@H](CC(C)C)NC(=O)[C@H](C)NC(=O)[C@H](C)NC(=O)[C@H](Cc2c[nH]cn2)NC(=O)[C@H](CCC(=O)O)NC(=O)[C@@H](NC(=O)[C@H](CCC(=O)O)NC(=O)[C@H](Cc2c[nH]c3ccccc23)NC(=O)[C@H](CC(=O)O)NC(=O)[C@H](C)NC(=O)[C@@H]2CCCN2C(=O)[C@H](CC(=O)O)NC(=O)[C@H](C)N)CSCC(=O)Nc2ccc(cc2)NC(=O)CSC[C@@H](C(=O)N[C@@H](CC(=O)O)C(=O)N[C@@H](C)C(=O)N[C@@H](CCSC)C(N)=O)NC1=O [Compound 12] (H-ADPADWECEHAALICDAM-NH2; linker 8-15 via Phenylene(1,4-NHCOCH2)2; N-terminus and C-terminus assumed)
4 | 0.73 | CC[C@H](C)[C@@H]1NC(=O)[C@H](CC(C)C)NC(=O)[C@H](C)NC(=O)[C@H](C)NC(=O)[C@H](Cc2c[nH]cn2)NC(=O)[C@H](CCC(=O)O)NC(=O)[C@@H](NC(=O)[C@H](C)NC(=O)[C@H](Cc2c[nH]c3ccccc23)NC(=O)[C@H](CC(C)C)NC(=O)[C@H](C)NC(=O)[C@@H]2CCCN2C(=O)[C@H](CC(=O)O)NC(=O)[C@H](C)N)CSCC(=O)Nc2cc(F)c(cc2F)NC(=O)CSC[C@@H](C(=O)N[C@@H](CCC(=O)O)C(=O)N[C@H](C(=O)N[C@@H](CCC(N)=O)C(N)=O)[C@@H](C)O)NC1=O [Compound 41] (H-ADPALWACEHAALICETQ-NH2; linker 8-15 via X7; N-terminus and C-terminus assumed)
5 | 0.29 | CC[C@H](C)[C@@H]1NC(=O)[C@@H](NC(=O)[C@H](CC(=O)O)NC(=O)[C@H](CCC(=O)O)NC(=O)[C@H](CC(=O)O)NC(=O)[C@H](C)NC(=O)[C@@H]2CCCN2C(=O)[C@H](CC(=O)O)NC(=O)[C@H](C)N)CSCC(=O)Nc2ccc(cc2)NC(=O)CSC[C@@H](C(=O)N[C@@H](CCC(N)=O)C(=O)N[C@@H](Cc2c[nH]c3ccccc23)C(=O)N[C@@H](CC(=O)O)C(N)=O)NC(=O)[C@H]([C@@H](C)CC)NC(=O)[C@H](Cc2c[nH]cn2)NC(=O)[C@H](C)NC(=O)[C@H](C)NC(=O)[C@H](CC(C)C)NC1=O [Compound 9] (H-ADPADEDCILAAHICQWD-NH2; linker 8-15 via Phenylene(1,4-NHCOCH2)2; N-terminus and C-terminus assumed)
6 | 0.92 | CC[C@H](C)[C@@H]1NC(=O)[C@@H](NC(=O)[C@H](CCC(=O)O)NC(=O)[C@H](CC(=O)O)NC(=O)[C@H](CCC(=O)O)NC(=O)[C@H](C)NC(=O)[C@@H]2CCCN2C(=O)[C@H](CC(=O)O)NC(=O)[C@H](C)N)CSCC(=O)Nc2ccc(cc2)NC(=O)CSC[C@@H](C(=O)N[C@@H](CCCNC(=N)N)C(=O)N[C@@H](Cc2c[nH]c3ccccc23)C(=O)N[C@@H](Cc2c[nH]c3ccccc23)C(N)=O)NC(=O)[C@H](CCSC)NC(=O)[C@H](Cc2c[nH]cn2)NC(=O)[C@H](C)NC(=O)[C@H](C)NC(=O)[C@H](CC(C)C)NC1=O [Compound 8] (H-ADPAEDECILAAHMCRWW-NH2; linker 8-15 via Phenylene(1,4-NHCOCH2)2; N-terminus and C-terminus assumed)
7 | 1.03 | CC[C@H](C)[C@@H]1NC(=O)[C@H](CC(C)C)NC(=O)[C@H](C)NC(=O)[C@H](C)NC(=O)[C@H](Cc2c[nH]cn2)NC(=O)[C@H](CCC(=O)O)NC(=O)[C@@H](NC(=O)[C@H](C)NC(=O)[C@H](Cc2c[nH]c3ccccc23)NC(=O)[C@H](CC(C)C)NC(=O)[C@H](C)NC(=O)[C@@H]2CCCN2C(=O)[C@H](CC(=O)O)NC(=O)[C@H](C)N)CSCC(=O)O[C@H]2CC[C@H](CC2)OC(=O)CSC[C@@H](C(=O)N[C@@H](CCC(=O)O)C(=O)N[C@H](C(=O)N[C@@H](CCC(N)=O)C(N)=O)[C@@H](C)O)NC1=O [Compound 45] (H-ADPALWACEHAALICETQ-NH2; linker 8-15 via X4; N-terminus and C-terminus assumed)
8 | 0.94 | CC[C@H](C)[C@@H]1NC(=O)[C@H](CC(C)C)NC(=O)[C@H](C)NC(=O)[C@H](C)NC(=O)[C@H](Cc2c[nH]cn2)NC(=O)[C@H](CCC(=O)O)NC(=O)[C@@H](NC(=O)[C@H](C)NC(=O)[C@H](Cc2c[nH]c3ccccc23)NC(=O)[C@H](CC(C)C)NC(=O)[C@H](C)NC(=O)[C@@H]2CCCN2C(=O)[C@H](CC(=O)O)NC(=O)[C@H](C)N)CSCC(=O)O[C@@H]2CCC[C@@H](C2)OC(=O)CSC[C@@H](C(=O)N[C@@H](CCC(=O)O)C(=O)N[C@H](C(=O)N[C@@H](CCC(N)=O)C(N)=O)[C@@H](C)O)NC1=O [Compound 46] (H-ADPALWACEHAALICETQ-NH2; linker 8-15 via X9; N-terminus and C-terminus assumed)
9 | 0.73 | CC[C@H](C)[C@@H]1NC(=O)[C@H](CC(C)C)NC(=O)[C@H](C)NC(=O)[C@H](C)NC(=O)[C@H](Cc2c[nH]cn2)NC(=O)[C@H](CCC(=O)O)NC(=O)[C@@H](NC(=O)[C@H](C)NC(=O)[C@H](Cc2c[nH]c3ccccc23)NC(=O)[C@H](CC(C)C)NC(=O)[C@H](C)NC(=O)[C@@H]2CCCN2C(=O)[C@H](CC(=O)O)NC(=O)[C@H](C)N)CSCC(=O)N(C)c2ccc(cc2)N(C)C(=O)CSC[C@@H](C(=O)N[C@@H](CCC(=O)O)C(=O)N[C@H](C(=O)N[C@@H](CCC(N)=O)C(N)=O)[C@@H](C)O)NC1=O [Compound 40] (H-ADPALWACEHAALICETQ-NH2; linker 8-15 via X5; N-terminus and C-terminus assumed)
10 | 0.63 | COc1cc2c(OC)cc1NC(=O)CSC[C@@H](C(=O)N[C@@H](CCC(=O)O)C(=O)N[C@@H](CC(C)C)C(=O)N[C@H](C(N)=O)C(C)C)NC(=O)[C@H](Cc1c[nH]cn1)NC(=O)[C@H](CC(C)C)NC(=O)[C@H](C)NC(=O)[C@H](C)NC(=O)[C@H](Cc1c[nH]c3ccccc13)NC(=O)[C@H](CCC(=O)O)NC(=O)[C@@H](NC(=O)[C@H](CCCNC(=N)N)NC(=O)[C@H](Cc1c[nH]cn1)NC(=O)[C@@H](NC(=O)[C@H](C)NC(=O)[C@@H]1CCCN1C(=O)[C@H](CC(=O)O)NC(=O)[C@H](C)N)[C@@H](C)O)CSCC(=O)N2 [Compound 34]
11 | 0.8 | CC[C@H](C)[C@@H]1NC(=O)[C@H](CC(C)C)NC(=O)[C@H](C)NC(=O)[C@H](C)NC(=O)[C@H](Cc2c[nH]cn2)NC(=O)[C@H](CCC(=O)O)NC(=O)[C@@H](NC(=O)[C@H](CC(C)C)NC(=O)[C@H](Cc2c[nH]c3ccccc23)NC(=O)[C@H](Cc2ccc(O)cc2)NC(=O)[C@H](C)NC(=O)[C@@H]2CCCN2C(=O)[C@H](CC(=O)O)NC(=O)[C@H](C)N)CSCC(=O)Nc2ccc(cc2)NC(=O)CSC[C@@H](C(=O)N[C@@H](CCC(=O)O)C(=O)N[C@H](C(=O)N[C@@H](CCC(=O)O)C(N)=O)C(C)C)NC1=O [Compound 13] (H-ADPAYWLCEHAALICEVE-NH2; linker 8-15 via Phenylene(1,4-NHCOCH2)2; N-terminus and C-terminus assumed)
12 | 0.62 | CC[C@H](C)[C@@H]1NC(=O)[C@H](CC(C)C)NC(=O)[C@H](C)NC(=O)[C@H](C)NC(=O)[C@H](Cc2c[nH]cn2)NC(=O)[C@H](CCC(=O)O)NC(=O)[C@@H](NC(=O)[C@H](C)NC(=O)[C@H](Cc2c[nH]c3ccccc23)NC(=O)[C@H](CC(C)C)NC(=O)[C@H](C)NC(=O)[C@@H]2CCCN2C(=O)[C@H](CC(=O)O)NC(=O)[C@H](C)N)CSCC(=O)Nc2ccc(cc2)NC(=O)CSC[C@@H](C(=O)N[C@@H](CCC(=O)O)C(=O)N[C@H](C(=O)N[C@@H](CCC(N)=O)C(N)=O)[C@@H](C)O)NC1=O [Compound 2] (H-ADPALWACEHAALICETQ-NH2; linker 8-15 via Phenylene(1,4-NHCOCH2)2; N-terminus and C-terminus assumed)

Row | Structure (SMILES) | chromatographic logD
13 | CC(C)C[C@@H]1NC(=O)[C@H](C)NC(=O)[C@H](C)NC(=O)[C@H](Cc2c[nH]c3ccccc23)NC(=O)[C@H](CCC(=O)O)NC(=O)[C@@H](NC(=O)[C@H](CCCNC(=N)N)NC(=O)[C@H](Cc2c[nH]cn2)NC(=O)[C@@H](NC(=O)[C@H](C)NC(=O)[C@@H]2CCCN2C(=O)[C@H](CC(=O)O)NC(=O)[C@H](C)N)[C@@H](C)O)CSCC(=O)Nc2cc(Cl)c(cc2Cl)NC(=O)CSC[C@@H](C(=O)N[C@@H](CCC(=O)O)C(=O)N[C@@H](CC(C)C)C(=O)N[C@H](C(N)=O)C(C)C)NC(=O)[C@H](Cc2c[nH]cn2)NC1=O [Compound 33] | 0.68
